# US20080234276A1, “Heterocyclic Triazines as Hypoxic Selective Protein Kinase Inhibitors” (SENTINEL ONCOLOGY LIMITED, priority 2005, published 2008)
# What was measured:
# Type in all cases: biochemical
# p70S6K (h) = molecular target: T1, p70S6K (h) (Homo sapiens, UniProt P23443); assay: p70S6K (h) kinase assay (Upstate, 33P-ATP filtermat); details: 100 uM of inhibitor, ATP 15 uM; for inhibition at 100 µM: read-out: P70S6 (h) % inhibition
# T1 construct: purchased Upstate Ltd
# Procedure: (§1) The compounds of the invention prepared in Examples 1-32 were tested for kinase inhibition against a range of common protein kinases. All kinase assays were conducted at Upstate Ltd, Gemini Crescent, Dundee Technology Park, Dundee, DD2 1SW, UK in accordance with its standard protocols as follows:
# (§2) In a final reaction volume of 25 μl, p70S6K (h) (5-10 mU) is incubated with 8 mM MOPS pH 7.0, 0.2 mM EDTA, 100 μM KKRNRTLTV, 10 mM MgAcetate and [[…]-33P-ATP] (specific activity approx. 500 cpm/pmol, concentration as required). The reaction is initiated by the addition of the MgATP mix. After incubation for 40 minutes at room temperature, the reaction is stopped by the addition of 5 μl of a 3% phosphoric acid solution. 10 μl of the reaction is then spotted onto a P30 filtermat and washed three times for 5 minutes in 75 mM phosphoric acid and once in methanol prior to drying and scintillation counting.
# (§3) Data for compounds. ATP concentrations are: Arg=45 uM; abl=45 uM; AuroraA=15 uM; Chk1=90 uM; KDR=90 uM; P70S6=15 uM. Figures represent the % inhibition when tested at 100 uM of inhibitor.
# Aurora-A (h) = molecular target: T2, Aurora-A (h) (Homo sapiens, UniProt O14965); assay: Aurora-A (h) kinase assay (Upstate, 33P-ATP filtermat); details: 100 uM of inhibitor, ATP 15 uM; for inhibition at 100 µM: read-out: AuroraA (h) % inhibition
# T2 construct: purchased Upstate Ltd
# T2 sequence (O14965 1-403): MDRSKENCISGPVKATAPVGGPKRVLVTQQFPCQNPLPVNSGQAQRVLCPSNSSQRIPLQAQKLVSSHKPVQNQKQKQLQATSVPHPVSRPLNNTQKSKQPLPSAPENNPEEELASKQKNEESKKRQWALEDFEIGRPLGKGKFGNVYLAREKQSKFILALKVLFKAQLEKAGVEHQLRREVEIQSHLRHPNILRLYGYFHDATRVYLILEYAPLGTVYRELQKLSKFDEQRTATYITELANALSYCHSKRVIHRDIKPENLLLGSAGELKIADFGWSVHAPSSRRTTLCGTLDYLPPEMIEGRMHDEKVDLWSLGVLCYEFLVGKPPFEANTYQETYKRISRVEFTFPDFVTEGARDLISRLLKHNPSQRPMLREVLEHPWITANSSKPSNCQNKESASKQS
# Procedure: as §1
# as §2, with “Aurora-A” for “p70S6K”, “200” for “100”, “LRRASLG (Kemptide),” for “KKRNRTLTV,”, “[…]-33P-ATP]” for “[[…]-33P-ATP]”, “50” for “75”
# as §3
# CHK1 (h) = molecular target: T3, CHK1 (h) (Homo sapiens, UniProt O14757); assay: CHK1 (h) kinase assay (Upstate, 33P-ATP filtermat); details: 100 uM of inhibitor; ATP 90 uM
# T3 construct: purchased Upstate Ltd
# T3 sequence (O14757 1-476): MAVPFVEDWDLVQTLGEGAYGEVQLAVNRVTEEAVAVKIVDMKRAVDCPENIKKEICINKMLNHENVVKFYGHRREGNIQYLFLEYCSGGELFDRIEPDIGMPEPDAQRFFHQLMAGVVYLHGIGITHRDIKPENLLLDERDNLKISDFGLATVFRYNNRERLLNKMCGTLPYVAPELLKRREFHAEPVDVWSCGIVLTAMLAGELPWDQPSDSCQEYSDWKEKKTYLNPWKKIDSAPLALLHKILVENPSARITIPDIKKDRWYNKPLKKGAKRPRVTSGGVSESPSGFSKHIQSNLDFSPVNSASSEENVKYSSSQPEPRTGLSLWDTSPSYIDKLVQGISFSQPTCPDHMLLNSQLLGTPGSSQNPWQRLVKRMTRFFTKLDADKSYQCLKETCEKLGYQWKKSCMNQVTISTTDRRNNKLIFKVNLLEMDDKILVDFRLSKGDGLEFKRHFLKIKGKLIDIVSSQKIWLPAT
# Procedure: as §1
# as §2, with “CHK1” for “p70S6K”, “200” for “100”, “[…],” for “KKRNRTLTV,”, “[…]-33P-ATP]” for “[[…]-33P-ATP]”
# as §3
# KDR (h) = molecular target: T4, KDR (h) (Homo sapiens, UniProt P35968); assay: KDR (h) kinase assay (Upstate, 33P-ATP filtermat); details: 100 uM of inhibitor; ATP 90 uM
# T4 construct: purchased Upstate Ltd
# T4 sequence (P35968 20-1356): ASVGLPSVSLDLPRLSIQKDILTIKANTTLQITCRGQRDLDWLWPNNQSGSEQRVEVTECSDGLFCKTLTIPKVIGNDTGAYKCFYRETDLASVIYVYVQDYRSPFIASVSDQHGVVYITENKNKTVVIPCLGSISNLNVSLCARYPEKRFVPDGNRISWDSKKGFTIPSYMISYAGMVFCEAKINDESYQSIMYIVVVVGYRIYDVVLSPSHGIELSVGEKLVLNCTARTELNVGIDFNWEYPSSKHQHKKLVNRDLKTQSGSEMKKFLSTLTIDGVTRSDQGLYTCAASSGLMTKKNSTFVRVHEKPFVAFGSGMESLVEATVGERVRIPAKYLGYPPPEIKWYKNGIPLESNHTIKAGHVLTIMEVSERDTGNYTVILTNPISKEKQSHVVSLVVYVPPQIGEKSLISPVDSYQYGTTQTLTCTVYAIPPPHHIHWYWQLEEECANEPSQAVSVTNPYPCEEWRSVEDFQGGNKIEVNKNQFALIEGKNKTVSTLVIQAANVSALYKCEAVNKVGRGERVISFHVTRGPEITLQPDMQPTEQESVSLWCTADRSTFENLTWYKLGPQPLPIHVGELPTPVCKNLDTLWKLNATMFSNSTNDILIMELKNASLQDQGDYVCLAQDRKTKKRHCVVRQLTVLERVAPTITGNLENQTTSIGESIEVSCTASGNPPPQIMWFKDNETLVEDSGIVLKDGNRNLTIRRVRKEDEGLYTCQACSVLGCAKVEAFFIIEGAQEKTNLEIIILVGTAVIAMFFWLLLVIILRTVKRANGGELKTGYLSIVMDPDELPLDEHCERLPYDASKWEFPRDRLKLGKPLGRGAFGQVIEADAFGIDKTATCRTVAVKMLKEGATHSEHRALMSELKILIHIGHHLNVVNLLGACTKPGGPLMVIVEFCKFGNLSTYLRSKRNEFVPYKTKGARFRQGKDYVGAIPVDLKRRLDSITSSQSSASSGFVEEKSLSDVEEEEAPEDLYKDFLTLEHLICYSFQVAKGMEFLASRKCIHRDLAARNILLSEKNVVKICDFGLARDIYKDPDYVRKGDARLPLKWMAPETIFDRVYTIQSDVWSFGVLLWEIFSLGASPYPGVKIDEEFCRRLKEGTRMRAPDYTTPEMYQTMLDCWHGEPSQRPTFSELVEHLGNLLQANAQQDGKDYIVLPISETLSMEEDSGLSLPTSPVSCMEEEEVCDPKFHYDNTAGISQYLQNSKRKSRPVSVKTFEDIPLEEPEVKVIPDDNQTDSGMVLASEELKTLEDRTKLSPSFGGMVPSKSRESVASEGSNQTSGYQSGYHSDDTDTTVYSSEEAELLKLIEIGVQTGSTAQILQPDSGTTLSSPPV
# Procedure: as §1
# as §2, with “KDR” for “p70S6K”, “0.33 mg/ml myelin basic protein,” for “100 μM KKRNRTLTV,”
# as §3
# Abl (h) = molecular target: T5, Abl (h) (Homo sapiens, UniProt P00519); assay: Abl (h) kinase assay (Upstate, 33P-ATP filtermat); details: 100 uM of inhibitor; ATP 45 uM
# T5 construct: purchased Upstate Ltd
# T5 sequence (P00519 whole entry): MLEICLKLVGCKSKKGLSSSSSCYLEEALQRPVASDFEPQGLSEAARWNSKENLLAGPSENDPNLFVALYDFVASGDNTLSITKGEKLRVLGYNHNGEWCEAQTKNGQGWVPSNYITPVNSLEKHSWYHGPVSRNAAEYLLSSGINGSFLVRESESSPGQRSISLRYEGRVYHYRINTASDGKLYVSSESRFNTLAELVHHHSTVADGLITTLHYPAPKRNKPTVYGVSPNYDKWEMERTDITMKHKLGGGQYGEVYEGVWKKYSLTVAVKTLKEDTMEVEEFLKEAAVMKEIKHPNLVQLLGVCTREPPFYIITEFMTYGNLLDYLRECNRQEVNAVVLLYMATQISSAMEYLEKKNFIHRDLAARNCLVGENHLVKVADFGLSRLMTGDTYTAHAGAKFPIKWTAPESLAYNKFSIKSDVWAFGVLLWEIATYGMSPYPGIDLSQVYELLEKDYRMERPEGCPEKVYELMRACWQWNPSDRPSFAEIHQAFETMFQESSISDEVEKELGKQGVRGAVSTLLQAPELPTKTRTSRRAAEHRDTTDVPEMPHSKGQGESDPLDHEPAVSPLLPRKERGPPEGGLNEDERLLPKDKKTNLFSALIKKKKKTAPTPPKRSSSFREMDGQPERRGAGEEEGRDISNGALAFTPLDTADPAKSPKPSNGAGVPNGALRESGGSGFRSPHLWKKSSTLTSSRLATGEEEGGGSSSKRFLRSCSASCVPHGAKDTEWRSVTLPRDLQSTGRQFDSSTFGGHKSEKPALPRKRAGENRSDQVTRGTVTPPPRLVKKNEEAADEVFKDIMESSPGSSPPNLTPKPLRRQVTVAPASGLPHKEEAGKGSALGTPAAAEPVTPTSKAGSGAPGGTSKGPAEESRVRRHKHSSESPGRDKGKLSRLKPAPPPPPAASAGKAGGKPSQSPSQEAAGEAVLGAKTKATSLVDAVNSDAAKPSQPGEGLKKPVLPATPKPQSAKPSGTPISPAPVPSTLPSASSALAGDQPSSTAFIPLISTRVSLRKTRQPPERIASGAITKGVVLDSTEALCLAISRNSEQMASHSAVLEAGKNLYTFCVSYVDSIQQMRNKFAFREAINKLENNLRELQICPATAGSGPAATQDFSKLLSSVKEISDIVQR
# Procedure: as §1
# as §2, with “Abl” for “p70S6K”, “50” for “100”, “EAIYAAPFAKKK,” for “KKRNRTLTV,”
# as §3
# Arg (h) = molecular target: T6, Arg (h) (Homo sapiens, UniProt P42684); assay: Arg (h) kinase assay (Upstate, 33P-ATP filtermat); details: 100 uM of inhibitor; ATP 45 uM
# T6 construct: purchased Upstate Ltd
# T6 sequence (P42684 whole entry): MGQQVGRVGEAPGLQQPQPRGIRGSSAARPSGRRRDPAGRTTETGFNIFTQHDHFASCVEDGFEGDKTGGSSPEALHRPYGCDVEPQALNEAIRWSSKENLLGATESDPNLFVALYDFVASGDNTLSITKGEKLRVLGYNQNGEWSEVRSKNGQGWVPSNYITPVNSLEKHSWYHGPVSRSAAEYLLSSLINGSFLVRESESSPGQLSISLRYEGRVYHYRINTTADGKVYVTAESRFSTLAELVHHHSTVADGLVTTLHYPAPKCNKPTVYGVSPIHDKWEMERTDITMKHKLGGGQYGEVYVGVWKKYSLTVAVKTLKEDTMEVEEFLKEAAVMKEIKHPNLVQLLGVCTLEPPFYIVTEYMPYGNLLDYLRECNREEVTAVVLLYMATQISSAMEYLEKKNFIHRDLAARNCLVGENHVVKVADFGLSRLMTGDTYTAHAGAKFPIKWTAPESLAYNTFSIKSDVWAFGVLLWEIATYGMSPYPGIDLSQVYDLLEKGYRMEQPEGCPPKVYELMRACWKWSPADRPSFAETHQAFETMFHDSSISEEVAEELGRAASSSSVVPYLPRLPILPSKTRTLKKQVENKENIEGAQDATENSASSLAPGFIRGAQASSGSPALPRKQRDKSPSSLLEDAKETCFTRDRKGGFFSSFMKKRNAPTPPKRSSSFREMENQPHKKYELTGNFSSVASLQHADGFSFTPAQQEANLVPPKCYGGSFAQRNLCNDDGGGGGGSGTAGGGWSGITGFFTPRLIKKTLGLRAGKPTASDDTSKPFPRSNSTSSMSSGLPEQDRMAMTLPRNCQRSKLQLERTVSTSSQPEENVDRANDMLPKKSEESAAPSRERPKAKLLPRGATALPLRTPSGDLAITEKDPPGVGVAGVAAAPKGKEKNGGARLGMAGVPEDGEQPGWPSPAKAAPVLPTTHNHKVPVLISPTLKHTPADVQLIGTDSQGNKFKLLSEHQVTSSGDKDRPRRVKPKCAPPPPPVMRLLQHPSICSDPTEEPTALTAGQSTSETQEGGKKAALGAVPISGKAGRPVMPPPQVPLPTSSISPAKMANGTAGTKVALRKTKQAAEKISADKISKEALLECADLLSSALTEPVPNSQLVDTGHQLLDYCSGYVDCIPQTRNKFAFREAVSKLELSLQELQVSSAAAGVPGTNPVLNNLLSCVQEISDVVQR
# Procedure: as §1
# as §2, with “Arg” for “p70S6K”, “50” for “100”, “EAIYAAPFAKKK,” for “KKRNRTLTV,”
# as §3
# T1 sequence (P23443 whole entry): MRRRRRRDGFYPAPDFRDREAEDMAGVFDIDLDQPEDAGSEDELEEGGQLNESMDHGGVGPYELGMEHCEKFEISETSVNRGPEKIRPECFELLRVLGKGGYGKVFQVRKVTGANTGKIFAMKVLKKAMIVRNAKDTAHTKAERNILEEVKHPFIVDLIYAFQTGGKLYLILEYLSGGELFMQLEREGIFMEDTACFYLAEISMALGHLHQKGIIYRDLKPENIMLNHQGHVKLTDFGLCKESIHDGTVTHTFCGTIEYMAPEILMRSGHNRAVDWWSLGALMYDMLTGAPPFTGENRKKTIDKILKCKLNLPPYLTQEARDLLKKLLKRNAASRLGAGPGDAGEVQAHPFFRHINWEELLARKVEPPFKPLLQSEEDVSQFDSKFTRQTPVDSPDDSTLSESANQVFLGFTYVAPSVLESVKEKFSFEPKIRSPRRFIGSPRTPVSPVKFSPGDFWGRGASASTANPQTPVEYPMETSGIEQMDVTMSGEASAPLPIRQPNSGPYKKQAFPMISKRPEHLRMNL
smiles,measurement,setting,value
"[O-][n+]1nc(Nc2cccnc2)nc2ccccc21 [Example 4, (1-Oxy-benzo[1,2,4]triazin-3-yl)-pyridin-3-yl-amine]",P70S6 (h) % inhibition,p70S6K (h),0%
same,AuroraA (h) % inhibition,Aurora-A (h),64%
same,Chk1 (h) % inhibition,CHK1 (h),14%
"CN(C)CCCOc1ccc(Cl)cc1NC(=O)Nc1nnc2ccccc2n1 [Example 9, 1-Benzo[1,2,4]triazin-3-yl-3-[5-chloro-2-(3-dimethylamino-propoxy)-phenyl]-urea]",inhibition at 100 µM,CHK1 (h),93%
"Cc1cc(Nc2nc3ccccc3[n+]([O-])n2)n[nH]1 [Example 10, (5-Methyl-1H-pyrazol-3-yl)-(1-oxy-benzo[1,2,4]triazin-3-yl)-amine]",AuroraA (h) % inhibition,Aurora-A (h),40%
same,Chk1 (h) % inhibition,CHK1 (h),20%
"[O-][n+]1nc(-c2cn[nH]c2)nc2ccccc21 [Example 12, 3-(1H-Pyrazol-4-yl)-benzo[1,2,4]triazine 1-oxide]",inhibition at 100 µM,p70S6K (h),87%
same,inhibition at 100 µM,Aurora-A (h),69%
same,inhibition at 100 µM,CHK1 (h),3%
same,inhibition at 100 µM,KDR (h),97%
"c1ccc2nc(-c3cn[nH]c3)nnc2c1 [Example 13, 3-(1H-Pyrazol-4-yl)-benzo[1,2,4]triazine]",inhibition at 100 µM,p70S6K (h),92%
same,inhibition at 100 µM,Aurora-A (h),90%
same,inhibition at 100 µM,CHK1 (h),13%
same,inhibition at 100 µM,KDR (h),80%
"Nc1nnc2cc(-c3ccn[nH]3)ccc2n1 [Example 14, 7-(2H-Pyrazol-3-yl)-benzo[1,2,4]triazin-3-ylamine]",inhibition at 100 µM,p70S6K (h),47%
same,inhibition at 100 µM,Aurora-A (h),81%
same,inhibition at 100 µM,CHK1 (h),20%
same,inhibition at 100 µM,KDR (h),89%
"Nc1nc2ccc(-c3ccn[nH]3)cc2[n+]([O-])n1 [Example 15, 1-Oxy-7-(2H-pyrazol-3-yl)-benzo[1,2,4]triazin-3-ylamine]",P70S6 (h) % inhibition,p70S6K (h),29%
same,AuroraA (h) % inhibition,Aurora-A (h),90%
same,Chk1 (h) % inhibition,CHK1 (h),10%
same,KDR (h) % inhibition,KDR (h),46%
"c1ccc2nc(-c3cc[nH]n3)nnc2c1 [Example 16, 3-(1H-Pyrazol-3-yl)-benzo[1,2,4]triazine]",inhibition at 100 µM,p70S6K (h),10%
same,inhibition at 100 µM,Aurora-A (h),41%
same,inhibition at 100 µM,KDR (h),17%
"[O-][n+]1nc(-c2cc[nH]n2)nc2ccccc21 [Example 17, 3-(1H-Pyrazol-3-yl)-benzo[1,2,4]triazine 1-oxide]",inhibition at 100 µM,p70S6K (h),0%
same,inhibition at 100 µM,Aurora-A (h),39%
same,inhibition at 100 µM,KDR (h),0%
"O=C(Nc1ccc2nncnc2c1)Nc1cnccn1 [Example 18, 1-Benzo[1,2,4]triazin-6-yl-3-pyrazin-2-yl-urea]",inhibition at 100 µM,CHK1 (h),23%
"c1ccc2nc(Nc3ccc(N4CCNCC4)nc3)nnc2c1 [Example 19, Benzo[1,2,4]triazin-3-yl-(6-piperazin-1-yl-pyridin-3-yl)-amine]",inhibition at 100 µM,Abl (h),89%
same,inhibition at 100 µM,Aurora-A (h),79%
same,inhibition at 100 µM,Arg (h),95%
"Clc1ccc2nnc(Nc3cccnc3)nc2c1 [Example 21, (6-Chloro-benzo[1,2,4]triazin-3-yl)-pyridin-3-yl-amine]",inhibition at 100 µM,Abl (h),76%
same,inhibition at 100 µM,Aurora-A (h),58%
same,inhibition at 100 µM,Arg (h),84%
"[O-][n+]1nc(Nc2cccnc2)nc2cc(Cl)ccc21 [Example 22, (6-Chloro-1-oxy-benzo[1,2,4]triazin-3-yl)-pyridin-3-yl-amine]",AuroraA (h) % inhibition,Aurora-A (h),82%
"c1ccc(-c2ccc3nnc(Nc4cccnc4)nc3c2)cc1 [Example 23, (6-Phenyl-benzo[1,2,4]triazin-3-yl)-pyridin-3-yl-amine]",inhibition at 100 µM,Abl (h),80%
same,inhibition at 100 µM,Aurora-A (h),68%
same,inhibition at 100 µM,Arg (h),83%
"[O-][n+]1nc(Nc2cccnc2)nc2cc(-c3ccccc3)ccc21 [Example 24, (1-Oxy-6-phenyl-benzo[1,2,4]triazin-3-yl)-pyridin-3-yl-amine]",AuroraA (h) % inhibition,Aurora-A (h),92%
"Nc1nc2cc(N3CCNCC3)ccc2[n+]([O-])n1 [Example 25, 1-Oxy-6-piperazin-1-yl-benzo[1,2,4]triazin-3-ylamine]",P70S6 (h) % inhibition,p70S6K (h),43%
same,KDR (h) % inhibition,KDR (h),18%
"Nc1nnc2ccc(N3CCNCC3)cc2n1 [Example 26, 6-Piperazin-1-yl-benzo[1,2,4]triazin-3-ylamine]",inhibition at 100 µM,p70S6K (h),37%
same,inhibition at 100 µM,KDR (h),98%
"Cl.Nc1nc2cc(OCC3CCNCC3)ccc2[n+]([O-])n1 [Example 27, 1-Oxy-6-(piperidin-4-ylmethoxy)-benzo[1,2,4]triazin-3-ylamine.hydrochloride]",P70S6 (h) % inhibition,p70S6K (h),62%
same,KDR (h) % inhibition,KDR (h),3%
"Cl.Nc1nnc2ccc(OCC3CCNCC3)cc2n1 [Example 28, 6-(Piperidin-4-ylmethoxy)-benzo[1,2,4]triazin-3-ylamine.hydrochloride]",P70S6 (h) % inhibition,p70S6K (h),47%
same,KDR (h) % inhibition,KDR (h),6%
"Nc1nc2cc(OCCc3ccc(Cl)c(Cl)c3)ccc2[n+]([O-])n1 [Example 29, 6-[2-(3,4-Dichloro-phenyl)-ethoxy]-1-oxy-benzo[1,2,4]triazin-3-ylamine]",P70S6 (h) % inhibition,p70S6K (h),49%
same,KDR (h) % inhibition,KDR (h),0%
"Nc1nnc2ccc(OCCc3ccc(Cl)c(Cl)c3)cc2n1 [Example 30, 6-[2-(3,4-Dichloro-phenyl)-ethoxy]-benzo[1,2,4]triazin-3-ylamine]",inhibition at 100 µM,p70S6K (h),52%
same,inhibition at 100 µM,KDR (h),11%
